Assay results as given in patent US20260258446A1, “SMALL MOLECULE ENHANCERS FOR ADENO-[…] PRODUCTION” (priority 2023, published 2026).
Counter-ions that a name gives are not always drawn.

Columns and labels:
[1] = tested on: AAV8 production in Viral Production 2.0 cells (293-VP 2.0); experiment: AAV8 production by transient transfection, genome titer by dPCR; assay type: cell-based, human
Experimental: Candidate small molecules were selected via literature-based searches and encompassed general classes of epigenetic modifiers, PI3K inhibitors, cell cycle modulators, innate immune activators/inhibitors, proteosome inhibitors, kinase inhibitors, free fatty acids, endoplasmic reticulum stress inducers/inhibitors, and autophagy activators/inhibitors. Various candidate small molecule were analyzed in AAV2 or AAV8 production. The initial test concentrations of each small molecule were determined by previous uses of the molecules found in the literature for a variety of applications. For each candidate small molecule, cells were triple transfected with three plasmids encoding the rep/cap genes, gene of interest flanked by […] terminal repeats (ITR) and adenovirus helper molecules. The rep/cap plasmid encoded either AAV2 or AAV8 capsids. The plasmid DNA (pDNA) was combined with the TransIT-VirusGEN® transfection reagent and added to 293-derived suspension cells. The cells were then immediately treated with the small molecule. AAV production occurred over the course of 72 hours, after which virus was harvested. Genomes were assessed by digital PCR (dPCR), and capsids by a specific ELISA or homogeneous based luciferase assay utilizing capsid specific antibodies. The percentage of full capsids was calculated by dividing the total number of genomes by the total number of capsids. A small molecule was considered a successful enhancer of AAV production if it increased AAV as measured by viral genomes 1.5-fold over an untreated control and was not detrimental to the percentage of full capsids, or if it increased the percentage of full capsids 1.5-fold over an untreated control and was not detrimental to the total number of produced AAV as measured by viral genomes. The experimental design may identify small molecules that enhance AAV production.
Viral Production Cells 2.0 (293-VP 2.0; Thermo Fisher Cat. No. A49784) were maintained in Viral Production Media (VPM; Thermo Fisher Cat. No. A4817901) supplemented with 4 mM GlutaMAX™ (Thermo Fisher Cat. No. 35050061). Expi293F™ Cells (Thermo Fisher Cat. No. A14527) were maintained in Expi293™ Expression Medium (Thermo Fisher Cat. No. A1435101). Both cell lines were maintained at the supplier recommended 8% CO2 and 37° C. on a 2.5 cm orbital shaker at 125 rpm.
The day before transfection, cells were passaged to ensure the cells were actively dividing and would reach a density of 4.0-5.0×10^6 cells/mL the day of transfection. The day of transfection, cells were seeded in 6-well non-tissue culture treated plates (Corning, Cat. No. 351146) at a density of 3.0×10^6 cells/mL. A 1 mg/mL DNA solution composed of a 1:1:1 plasmid concentration ratio of a transfer vector (Agilent, Cat. No. 240074-51), an AAV2 RepCap Vector (Aldevron, Cat. No. pALD-AAV2) or an AAV5 RepCap Vector (Aldevron, Cat. No. pALD-AAV5) or an AAV8 RepCap vector (Genemedi, Cat. No. P-RC09) or an AAV9 RepCap vector (Genemedi, Cat. No. p-RC13), and a helper vector (Agilent Cat. No. 240071-54) was formed in water. For each milliliter of culture, 3 μL of TransIT-VirusGEN® (Mirus Bio LLC, Cat. No. MIR 6700) and 2 μg of DNA were added to a final volume of 100 μL Phosphate-buffered saline (PBS; Corning, Cat. No. 21-040-CV) for a final transfection reagent to DNA ratio of 1.5:1. This mixture was incubated at room temperature for 30 minutes to allow transfection complexes to form, after which 100 μL was added per milliliter of culture for a final complexation volume of 10%. In some instances, cells were transfected with 1 μL FectoVIR®-AAV (Polyplus, Cat. No. 101000044) per million cells and 1 μg DNA per million cells for a final transfection reagent to DNA ratio of 1:1, and a final complexation volume of 5%. In some instances, cells were transfected with 1 μL PEIPro® (Polyplus, Cat. No. 101000017) per million cells and 1 μg DNA per million cells for a final transfection reagent to DNA ratio of 1:1, and a final complexation volume of 10%. […]

[2] = tested on: AAV2 or AAV8 production in 293-derived suspension cells; experiment: cells; assay type: cell-based, human
Experimental: Various candidate small molecule were analyzed in AAV2 or AAV8 production. […] For each candidate small molecule, cells were triple transfected with three plasmids encoding the rep/cap genes, gene of interest flanked by internal terminal repeats (ITR) and adenovirus helper molecules. The rep/cap plasmid encoded either AAV2 or AAV8 capsids. The plasmid DNA (pDNA) was combined with the TransIT-VirusGEN® transfection reagent and added to 293-derived suspension cells. The cells were then immediately treated with the small molecule. AAV production occurred over the course of 72 hours, after which virus was harvested. Genomes were assessed by digital PCR (dPCR), and capsids by a specific ELISA or homogeneous based luciferase assay utilizing capsid specific antibodies. The percentage of full capsids was calculated by dividing the total number of genomes by the total number of capsids. A small molecule was considered a successful enhancer of AAV production if it increased AAV as measured by viral genomes 1.5-fold over an untreated control and was not detrimental to the percentage of full capsids, or if it increased the percentage of full capsids 1.5-fold over an untreated control and was not detrimental to the total number of produced AAV as measured by viral genomes. […]

[3] = from about 0.5 μM to about 40 μM

With `CC[C@@H]1C(=O)N(C)c2cnc(Nc3ccc(C(=O)NC4CCN(C)CC4)cc3OC)nc2N1C1CCCC1` [Compound A, (R)-4-((8-cyclopentyl-7-ethyl-5-methyl-6-oxo-5,6,7,8-tetrahydropteridin-2-yl)amino)-3-methoxy-N-(1-methylpiperidin-4-yl)benzamide] the “Successful enhancer of AAV8 production (genomes or % full capsids 1.5-fold over untreated control)” value ([1]; from about 0.025 μM to about 1 μM) was “Successful enhancers”.

In the case of `CN[C@H]1CCc2cc(OC)c(OC)c(OC)c2-c2ccc(OC)c(=O)cc21` [Compound B, (S)-1,2,3,10-tetramethoxy-7-(methylamino)-6,7-dihydrobenzo[a]heptalen-9 (5H)-one], the “Successful enhancer of AAV8 production (genomes or % full capsids 1.5-fold over untreated control)” value ([1]; from about 0.0673 μM to about 0.2019 μM) is reported as “Successful enhancers”.

For `CC(=O)O[C@@]12CO[C@@H]1C[C@H](O)[C@@]1(C)C(=O)[C@H](O)C3=C(C)[C@@H](OC(=O)[C@H](O)[C@@H](NC(=O)OC(C)(C)C)c4ccccc4)C[C@@](O)([C@@H](OC(=O)c4ccccc4)[C@H]21)C3(C)C` [Compound C, [(1S,2S,3R,4S,7R,9S, 10S, 12R, 15S)-4-acetyloxy-1,9,12-trihydroxy-15-[(2R,3S)-2-hydroxy-3-[(2-methylpropan-2-yl)oxycarbonylamino]-3-phenylpropanoyl]oxy-10,14,17,17-tetramethyl-11-oxo-6-oxatetracyclo[11.3.1.0^3,10.0^4,7]heptadec-13-en-2-yl]benzoate], the “Successful enhancer of AAV8 production (genomes or % full capsids 1.5-fold over untreated control)” value ([1]; from 1 μM to about 20 μM) was “Successful enhancers” and the “Increase in AAV8 titers ("Top Hits")” value ([1]; from about 1 μM to about 20 μM) was “highest increase in AAV8 titers”.

For `CCn1cc(-c2ccnc3[nH]c(-c4cccc(CN(C)C)c4)cc23)c(-c2ccc(NC(=O)N(C)C)cc2)n1` [Compound D, 3-(4-(4-(2-(3-((dimethylamino)methyl)phenyl)-1H-pyrrolo[2,3-b]pyridin-4-yl)-1-ethyl-1H-pyrazol-3-yl)phenyl)-1,1-dimethylurea], the “Successful enhancer of AAV8 production (genomes or % full capsids 1.5-fold over untreated control)” value ([1]; about 0.05 μM) was “Successful enhancers” and the fold induction at 0.05 µM ([2]; Homo sapiens, 72 h, read-out: Fold increase in genomes over no enhancer control) was 1.57 to 1.91.

For `CC(=O)O[C@H]1C(=O)[C@@]2(C)[C@H]([C@H](OC(=O)c3ccccc3)[C@]3(O)C[C@H](OC(=O)[C@H](O)[C@@H](NC(=O)c4ccccc4)c4ccccc4)C(C)=C1C3(C)C)[C@]1(OC(C)=O)CO[C@@H]1C[C@@H]2O` [Compound F, [(1S,2S,3R,4S,7R,9S,10S,12R, 15S)-4,12-diacetyloxy-15-[(2R,3S)-3-benzamido-2-hydroxy-3-phenylpropanoyl]oxy-1,9-dihydroxy-10,14,17,17-tetramethyl-11-oxo-6-oxatetracyclo[11.3.1.0^3,10.0^4,7]heptadec-13-en-2-yl]benzoate], the “Increase in AAV8 titers ("Top Hits")” value [1, 3] was “highest increase in AAV8 titers” and the “Successful enhancer of AAV8 production (genomes or % full capsids 1.5-fold over untreated control)” value [1, 3] was “Successful enhancers”.

For `CC(=O)NCC(=O)N1[C@@H]2CC[C@H]1c1ccc(Nc3ncc(C(F)(F)F)c(NC4CCC4)n3)cc12` [Compound G, N-[2-[(1R,8S)-4-[[4-(cyclobutylamino)-5-(trifluoromethyl)pyrimidin-2-yl]amino]-11-azatricyclo[6.2.1.0^2,7]undeca-2 (7),3,5-trien-11-yl]-2-oxoethyl]acetamide], the “Successful enhancer of AAV8 production (genomes or % full capsids 1.5-fold over untreated control)” value ([1]; from about 0.02 μM to about 0.5 μM) was “Successful enhancers”.

In the case of `O=C(CCCCCCC(=O)Nc1ccccc1)NO` [SAHA, suberoylanilide hydroxamic acid], the “Successful enhancer of AAV8 production (genomes or % full capsids 1.5-fold over untreated control)” value ([1]; from about 0.5 μM to about 1 μM) is reported as “Successful enhancers”.

`CCC(=O)[O-].[Na+]` [Sodium Propionate] was tested, and the “Fold increase in genomes over no enhancer control” value ([2]; 5000 μM-10000 μM) was 1.20-1.48 fold.

For `CCCC(CCC)C(=O)[O-].[Na+]` [Valproic Acid Sodium Salt], the “Successful enhancer of AAV8 production (genomes or % full capsids 1.5-fold over untreated control)” value ([1]; from about 400 μM to about 2500 μM) was “Successful enhancers”.

`CC[C@]1(O)C[C@@H]2CN(CCc3c([nH]c4ccccc34)[C@@](C(=O)OC)(c3cc4c(cc3OC)N(C)[C@H]3[C@@](O)(C(=O)OC)[C@H](OC(C)=O)[C@]5(CC)C=CCN6CC[C@]43[C@@H]65)C2)C1` [Vinblastine Sulfate] was tested, and the “Successful enhancer of AAV8 production (genomes or % full capsids 1.5-fold over untreated control)” value ([1]; from about 2.5 μM to about 15 μM) was “Successful enhancers”.
